Data: patent US12298297B2, “Visual cell sorting” (University of Washington, priority 2020, dated 2025)

Key:
hTERT RPE-1 = experiment: Nuclear shape factor imaging of paclitaxel-treated cells (nuclear lobulation); assay type: cell-based, human; details: 0.25 nM paclitaxel, 24 hours, RPE-1 NLS-Dendra2×3 cells
Description: FIGS. 4A-4F. Visual Cell Sorting to dissect heterogeneous nuclear morphology following paclitaxel treatment. (4A) RPE-1 NLS-Dendra2×3 cells were treated for 24 hours with 0.25 nM paclitaxel or DMSO and imaged. The shape factor, which measures the degree of an object's circularity, was computed for each nucleus. One normal nucleus with a shape factor near one and one lobulated nucleus with a low shape factor are shown. The computationally determined boundaries of each nucleus are shown in blue; scale bar=10 (4B) Shape factor density plots for vehicle (DMSO) and 0.25 nM paclitaxel-treated RPE-1 cells (n≥3,914 cells per treatment). Dashed line, cutoff for lobulated nuclei (shape factor <0.65). […]
To test whether Visual Cell Sorting enables transcriptomics on cells with distinct image-based phenotypes, single cell RNA sequencing was performed on cells undergoing divergent morphologic responses to paclitaxel. […] Paclitaxel treated cells were then analyzed it was observed that 30% of paclitaxel treated cells had lobulated nuclei, defined by shape factor of less than 0.65 (FIG. 4B).
RPE-1 NLS-Dendra2×3/H2B-miRFP/NES-mBeRFP Clone 3 cells were plated at 50,000 cells per well in a 6-well plate. […] After 30 hours of treatment, cells were placed on the microscope and imaged, analyzed, and activated across 2,204 sites (˜75% coverage, avoided well edges) in 2 wells. […]

U-2 OS H3-Dendra2 cells = experiment: Nucleus-to-cytoplasm (N:C) miRFP ratio of individually expressed NLS variants fused to CMPK-miRFP reporter; assay type: cell-based, human
Description: FIGS. 3A-3D. Visual Cell Sorting-derived variant scores accurately predict NLS function. (3A) Nine NLS variants were individually expressed in the CMPK-miRFP reporter in U-2 OS H3-Dendra2 cells. The median nucleus to cytoplasm (N:C) ratio of cells expressing each variant was measured by microscope and compared to its localization score derived by Visual Cell Sorting. n≥141 cells per variant per replicate. Bars, mean across at least three separate replicates. (3B) SV40 NLS variants that appeared to enhance nuclear localization were individually tested both alone and in combination. NLS variants with up to three amino acid changes were expressed in U-2 OS H3-Dendra2 cells and imaged; the median N:C ratio was quantified across cells in the same well. n≥527 cells per variant per replicate. […]
A library was based on the SV40 NLS, a 7-residue sequence containing a lysine and arginine-rich region (K/R motif) that was the first NLS to be discovered. […] The degree of nuclear localization was calculated using a nucleus-to-cytoplasm miRFP intensity ratio (N:C ratio; FIG. 9A). […]
Analysis of Metamorph-calculated nucleus and cytoplasm mean intensity values was done using Python (v3.6.5). […] Cells with no miRFP expression were removed with a gate that was determined by examination of the histogram of the mean miRFP intensity values for cells in each well. […]

Compound | cells with lobulated nuclei, defined by shape factor of less than 0.65 (hTERT RPE-1) | increase in nuclear localization compared to the wild-type SV40 NLS (median N:C ratio) (U-2 OS H3-Dendra2 cells)
CC(=O)O[C@H]1C(=O)[C@@]2(C)[C@H]([C@H](OC(=O)c3ccccc3)[C@]3(O)C[C@H](OC(=O)[C@H](O)[C@@H](NC(=O)c4ccccc4)c4ccccc4)C(C)=C1C3(C)C)[C@]1(OC(C)=O)CO[C@@H]1C[C@@H]2O [paclitaxel] | 30% | 
EPPRKKRKIGI [superNLS, optimized SV40 NLS with three missense variants, fused to the CMPK-miRFP reporter] |  | 2.3 fold
